Starred links: 1 amine or outer side, 2 acyl side, 3 side chain; linkers in the order of their positions; H or OH if unused. Positions of bridges follow the written chain, without caps; N, C: chain ends. Non-standard residues stand in square brackets, D forms with d. Residues, ends and D or L forms follow the SMILES beside them. Chains are numbered I, II in the order given. Actinocin(9to1) = Cc1c2oc3c(C)ccc(C(=O)[*:1])c3nc-2c(C(=O)[*:2])c(N)c1=O; NMeV = CN[C@H](C(=O)O)C(C)C; Sar = CNCC(=O)O
Legend:
[1] = system: fibroblasts derived from the induced pluripotent stem cells; test: Cell proliferation of iPSC-derived fibroblasts, Cell Counting Kit-8 (FDA-approved drug screening); format: cell-based, human; details: absorbance at 450 nm
Protocol: For cell proliferation, absorbance was measured at 450 nm by using the Cell Counting Kit-8 (Dojindo).
The plated cells were treated with about 800 FDA-approved drugs to screen for drugs that reduce the proliferation (FIG. 6A). For cell proliferation, absorbance was measured at 450 nm by using the Cell Counting Kit-8 (Dojindo) (FIG. 6B).

total collagen in iPSC-F = test: Total collagen expression, hydroxyproline assay, in iPSC-derived fibroblasts; format: cell-based, human; details: for expression of the total collagen: 5 μM, SSc patient iPSC-derived fibroblasts, vs untreated
Protocol: (§1) The cells or cell culture media were harvested, mixed with hydrochloric acid at a ratio of 1:1, and cultured at 120° C. for 3 hours. After culture, 5 mg of activated charcoal was added, followed by centrifugation at 13,000×g for 5 minutes to separate only the supernatant. The harvested supernatant was transferred to a 96-well plate and dried completely at 60° C. The Chloramine T/Oxidation Buffer mixture was added to the well, and it was cultured for 5 minutes at room temperature. After adding the diluted DMAB Reagent and incubating at 60° C. for 90 minutes, absorbance at 560 nm was measured.
as §1, with “For collagen expression, the hydroxyproline assay kit (Sigma) was used. The cells” for “The cells”, “1:1, and incubated at 120°” for “1:1, and cultured at 120°”, “hours. After incubation, 5 mg” for “hours. After culture, 5 mg”, “it was incubated for 5” for “it was cultured for 5”
For collagen expression, the hydroxyproline assay kit (Sigma) was used. The cells or cell culture media were harvested, mixed with hydrochloric acid at a ratio of 1:1, and incubated at 120° C. for 3 hours. After incubation, 5 mg of activated charcoal was added, followed by centrifugation at 13,000×g for 5 minutes to separate only the supernatant. […] After adding the diluted DMAB Reagent and incubating at 60° C. for 90 minutes, absorbance at 560 nm was measured.
After 1 day, pirfenidone and nintedanib, which are drugs approved as anti-fibrotic drugs, were treated at a concentration of 5 μM. Collagen expression was measured using the hydroxyproline assay kit (Sigma). […] After adding the diluted DMAB Reagent and incubating at 60° C. for 90 minutes, absorbance was measured at 560 nm to measure the total amount of collagen.

ACTA2 and COL1A1 = test: Fibrosis marker gene expression (qRT-PCR) in SSc iPSC-derived fibroblasts; format: cell-based, human; details: 5 μM; SSc patient iPSC-derived fibroblasts; vs untreated
Protocol: In order to verify the fibrosis model of the fibroblasts derived from the induced pluripotent stem cells of patients with systemic sclerosis formed in Example 3 above, 2.5×10^5 fibroblasts were plated on a 6-well plate, and maintained and expanded for 1 day. One day later, pirfenidone and nintedanib were treated at a concentration of 5 μM. The total RNA was extracted using Trizol, and cDNA was synthesized using the Revert Aid™ First Strand cDNA Synthesis kit. The qRT-PCR was performed on the synthesized cDNA using LightCycle 480 SYBR Green. The primers used are presented in [Table 3]. All of the experiments were repeated 3 times, and the threshold of the average cycle was used to calculate gene expression for averaging GAPDH as an internal control.

α-SMA = α-SMA expression by western blot in iPSC-derived fibroblasts; format: cell-based, human
Protocol: In order to verify the antifibrotic effect of dactinomycin and raloxifene, which are the drugs selected through the above experiment, 1×10^6 fibroblasts were plated on a 100 mm culture dish, treated with the target drugs, and maintained and expanded. The protein was extracted using the RIPA buffer (Sigma) to analyze the expression of fibrosis factors, and the protein concentration was quantified by the Bradford assay. The same concentration of the protein was loaded on 10% SDS-PAGE, and the protein was transferred to polyvinylidene difluoride membranes. […] After washing with PBS containing 0.1% Tween-20, the peroxidase-linked IgG secondary antibody was incubated, and protein expression was measured using the ECL kit.
In order to confirm the reduction effect of the expression of the fibrosis factors of raloxifene, which is the drug selected in Example 6, raloxifene was treated by concentration, and the expression of α-SMA was confirmed. […] The protein was extracted using the RIPA buffer (Sigma) to analyze the expression of fibrosis factors, and the protein concentration was quantified by the Bradford assay. […] After washing with PBS containing 0.1% Tween-20, the peroxidase-linked IgG secondary antibody was incubated, and protein expression was measured using the ECL kit.

iPSC-F = test: Wound healing assay in iPSC-F with TGF-b induced fibrosis; format: cell-based, human
Protocol: The fibroblasts were plated on a 6-well plate and maintained and expanded. When the cells filled the plate, the plate was scratched, and fibrosis was induced by TGF-b and it was treated with the drug raloxifene.

3D fibroblast layer = test: Thickness of 3D fibroblast layer with TGF-b induced fibrosis; format: cell-based, human
Text: A 3D fibroblast layer was produced using the fibroblasts formed in Example 3 above. 2×10^5 fibroblasts after 28 days of differentiation were harvested and mixed with collagen 1 and plated on a 6-well-sized Transwell plate. It was replaced once every 2 days with Fibroblast Differentiation Culture Medium 1 for 5 days (FIG. 5F).
In order to confirm the effect of reducing the skin thickness by raloxifene, which is the drug selected in Example 6 above, fibrosis was induced in the 3D fibroblast layer with TGF-b, and it was treated with the drug raloxifene.

[2] = system: COL1A1, COL3A1, and ACTA2; test: Fibrosis factor gene expression (qRT-PCR) in skin tissue of bleomycin model; format: in vivo, mouse; details: subcutaneous for 21 days
Protocol: (§2) A systemic sclerosis model was established by dissolving Bleocin (Dong-A ST, 15 mg) in PBS and injecting it daily into the nape of mice. Raloxifene and bazedoxifene were injected subcutaneously for 21 days from 3 days after the injection of Bleocin (FIG. 8A).
ECM gene expression was confirmed to verify the antifibrotic efficacy of raloxifene in the bleomycin model established in Example 8-1 above. After harvesting the skin tissue, the total RNA was extracted using Trizol, and cDNA was synthesized using the Revert Aid™ First Strand cDNA Synthesis kit. The qRT-PCR was performed on the synthesized cDNA using LightCycle 480 SYBR Green. The primers used are presented in [Table 4]. All of the experiments were repeated three times, and the threshold of the average cycle was used to calculate gene expression for averaging GAPDH as an internal control.

bleomycin mouse model [3] = test: Thickness of skin tissue in bleomycin model (histology); format: in vivo
Protocol: as §2
In order to verify the antifibrotic efficacy of raloxifene in the bleomycin model established in Example 8-1 above, the skin tissue was harvested and paraffin blocks were prepared. The harvested skin tissue was fixed in 4% formaldehyde. The tissue was maintained in the running water for a day to remove the remaining fixative. Dehydration was carried out sequentially while increasing the concentration of an ethanol solution. After dehydration, a transparent process was performed with xylene, followed by paraffin penetration. The next day, the tissue was fixed to a paraffin block, and a tissue section was obtained using a microtome. The slide was dried at 60° C. for 1 hour. After the slide was deparaffinized with xylene, it was rehydrated while decreasing the concentration of the ethanol solution and washed with tap water, and staining was performed.
For hematoxylin and eosin (H&E) staining, sections were incubated in the Harris hematoxylin solution for 10 minutes. The slide was washed, decolorized in an ethanol solution containing 1% HCl, and then neutralized in 0.2% ammonia water. […]

bleomycin mouse model [4] = test: Pulmonary fibrosis in bleomycin model (Masson Trichrome staining); format: in vivo
Protocol: A systemic sclerosis model was established by dissolving Bleocin (Dong-A ST, 15 mg) in PBS and injecting it daily into the nape of mice. Raloxifene and bazedoxifene were injected subcutaneously for 21 days from 3 days after the injection of Bleocin (FIG. 8A). […] For Masson Trichrome staining, the slide was mordated overnight in the Bouin solution. After washing the slide, nuclei were stained for 10 minutes with Weigert Iron Hematoxylin. The cytoplasm was stained for 5 minutes with Biebrich scarlet-acid fuchsin. It was decolorized for 10 minutes with a solution in which phosphotungstic acid, phosphomolybdic acid, and DW were mixed at a ratio of 1:1:2. The collagenic fiber was stained by maintaining in a 2% aniline blue solution for 5 minutes. The slide was washed and subjected to a dehydration process while increasing the concentration of ethanol. The remaining ethanol was removed with xylene, and it was sealed using the VectaMount Permanent Mounting Medium.

[5] = raloxifene treated by concentration

SMILES: Cc1c2oc3c(C)ccc(C(=O)N[C@@H]4C(=O)N[C@H](C(C)C)C(=O)N5CCC[C@H]5C(=O)N(C)CC(=O)N(C)[C@@H](C(C)C)C(=O)O[C@@H]4C)c3nc-2c(C(=O)N[C@@H]2C(=O)N[C@H](C(C)C)C(=O)N3CCC[C@H]3C(=O)N(C)CC(=O)N(C)[C@@H](C(C)C)C(=O)O[C@@H]2C)c(N)c1=O [dactinomycin] (I: T[dV]P[Sar][NMeV] / II: T[dV]P[Sar][NMeV]; ester I:1-I:C, II:1-II:C; linker I:N-II:N via Actinocin(9to1))
- cell proliferation [1]: decreased

SMILES: COC(=O)c1ccc2c(c1)NC(=O)/C2=C(\Nc1ccc(N(C)C(=O)CN2CCN(C)CC2)cc1)c1ccccc1 [nintedanib]
- expression of the total collagen (total collagen in iPSC-F): significantly reduced
- gene expression of ACTA2 (ACTA2 and COL1A1): significantly reduced
- gene expression of COL1A1 (ACTA2 and COL1A1): significantly reduced

SMILES: Cc1ccc(=O)n(-c2ccccc2)c1 [pirfenidone]
- expression of the total collagen (total collagen in iPSC-F): significantly reduced
- gene expression of ACTA2 (ACTA2 and COL1A1): significantly reduced
- gene expression of COL1A1 (ACTA2 and COL1A1): significantly reduced

SMILES: O=C(c1ccc(OCCN2CCCCC2)cc1)c1c(-c2ccc(O)cc2)sc2cc(O)ccc12 [raloxifene]
- cell proliferation [1]: decreased
- expression of the total collagen, treated by concentration (total collagen in iPSC-F; [5]): reduced as the treatment concentration of raloxifene was increased
- expression of α-SMA (α-SMA; iPSC-F of patients with systemic sclerosis): effectively decreased the expression of α-SMA compared to dactinomycin
- expression of α-SMA, treated by concentration (α-SMA; [5]): reduced as the treatment concentration of raloxifene was increased
- wound healing, which was increased by TGF-b (iPSC-F; wound healing assay in iPSC-F): reduced
- proliferation of the cells, which was increased by TGF-b (iPSC-F; wound healing experiment, TGF-b induced): reduced
- thickness of the 3D fibroblast layer, which was increased by TGF-b (3D fibroblast layer): reduced
- expression of ACTA2 [2]: reduced
- expression of COL1A1 [2]: reduced
- expression of COL3A1 [2]: reduced
- thickness of the skin tissue (bleomycin mouse model [3]): reduced
- lung fibrosis (bleomycin mouse model [4]): reduced

Reference: patent US20220064604A1, “SYSTEMIC SCLEROSIS DISEASE MODEL AND USE THEREOF” (YiPSCELL Inc., priority 2018, published 2022)
